# “And” between values parts separate entries of the source, which are not always exact repeats. Equal values may be shown once. Read-outs that look alike come from different tables or passages of the source.
# How the values were obtained:
# [1] = target: T1, GST-YTHDF3 (Homo sapiens, UniProt Q7Z739); experiment: HTRF-based binding assay, DF3; conditions: HTRF, 100 µM compound, normalized
# T1 construct: made in house
# T1 sequence (Q7Z739 1-585): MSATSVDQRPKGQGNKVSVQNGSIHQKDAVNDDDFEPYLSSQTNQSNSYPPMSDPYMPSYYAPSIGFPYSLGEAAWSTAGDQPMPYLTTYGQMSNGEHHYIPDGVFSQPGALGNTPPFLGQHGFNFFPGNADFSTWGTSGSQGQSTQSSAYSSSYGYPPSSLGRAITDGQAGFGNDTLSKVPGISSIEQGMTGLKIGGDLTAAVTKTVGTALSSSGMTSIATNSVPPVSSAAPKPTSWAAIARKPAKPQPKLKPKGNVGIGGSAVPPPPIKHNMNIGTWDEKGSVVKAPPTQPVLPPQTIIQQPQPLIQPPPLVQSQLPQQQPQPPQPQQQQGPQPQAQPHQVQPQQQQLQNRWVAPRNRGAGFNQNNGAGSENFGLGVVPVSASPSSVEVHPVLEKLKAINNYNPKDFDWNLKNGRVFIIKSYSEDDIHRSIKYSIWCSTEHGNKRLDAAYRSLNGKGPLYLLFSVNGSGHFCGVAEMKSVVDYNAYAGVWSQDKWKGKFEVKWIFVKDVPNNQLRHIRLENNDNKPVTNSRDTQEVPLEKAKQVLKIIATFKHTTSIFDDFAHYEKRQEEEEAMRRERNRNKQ
# Protocol: (§1) The HTRF-based assay was employed to evaluate the selectivity of the series against other DF proteins.
# (§2) A dose–response experiment on DF1 and DF3 was conducted for compounds 17, 18, 23, and 27 (Figure S5). Compounds 17, 18, and 27 are active on three DF proteins. […] In contrast, compound 23 is selective for DF2, with residual signals (at the highest employed concentration of 62.5 μM) of 51 and 87% for DF1 and DF3, respectively.
# (§3) GST-YTHDC1, GST-YTHDF1, GST-YTHDF2, and GST-YTHDF3 were purified as previously reported. The HTRF assay was assembled as detailed in ref with the only difference being that the starting concentration of the dose–response experiments used for the IC50 determination was variated dependently from the tested compound. The same protocol was applied to the four proteins. The competitive inhibition data of GST-YTHDF1 (single dose experiment at 100 μM compound concentration and dose–response curves), GST-YTHDF3 (single dose experiment at 100 μM compound concentration and dose–response curves), and GST-YTHDF2 (single dose experiment at 100 μM compound concentration) were normalized as described in ref to mitigate interference. The signal was measured as described in ref .
# [2] = target: T2, GST-YTHDF1 (Homo sapiens, UniProt Q9BYJ9); experiment: HTRF-based binding assay, DF1; conditions: HTRF, 100 µM compound, normalized
# T2 construct: made in house
# T2 sequence (Q9BYJ9 1-559): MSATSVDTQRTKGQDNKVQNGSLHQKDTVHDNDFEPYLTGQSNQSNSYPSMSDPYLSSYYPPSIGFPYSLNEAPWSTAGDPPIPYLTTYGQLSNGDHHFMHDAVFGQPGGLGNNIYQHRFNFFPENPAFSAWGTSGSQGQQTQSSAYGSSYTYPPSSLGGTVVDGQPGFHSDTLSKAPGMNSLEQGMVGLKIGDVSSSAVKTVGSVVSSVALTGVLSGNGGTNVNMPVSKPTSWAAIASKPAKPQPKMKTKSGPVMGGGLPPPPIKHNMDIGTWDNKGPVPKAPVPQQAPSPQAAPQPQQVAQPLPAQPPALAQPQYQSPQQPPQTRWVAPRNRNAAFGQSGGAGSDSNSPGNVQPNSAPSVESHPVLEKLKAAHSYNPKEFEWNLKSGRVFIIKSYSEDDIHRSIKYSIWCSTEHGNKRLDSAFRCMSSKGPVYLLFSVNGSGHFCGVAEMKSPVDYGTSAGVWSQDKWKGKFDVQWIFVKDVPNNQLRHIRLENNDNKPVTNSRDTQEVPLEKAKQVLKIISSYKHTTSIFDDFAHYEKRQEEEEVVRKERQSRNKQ
# Protocol: as §1, §2, §3
# [3] = target: T3, YTHDC2 (Homo sapiens, UniProt Q9H6S0); experiment: DNA-fluorescence polarization (FP) competition assay, DC2; format: binding; conditions: for Kd: Cheng-Prusoff from FP IC50, probe Kd 7 nM, two biological replicates
# T3 construct: YTH domain of YTHDC2 (residues 1285–1424, cloned into the pGEX-6P-1 vector); made in house; host or cells: Rosetta (DE3) cells (E. coli)
# T3 sequence (Q9H6S0 1285-1424): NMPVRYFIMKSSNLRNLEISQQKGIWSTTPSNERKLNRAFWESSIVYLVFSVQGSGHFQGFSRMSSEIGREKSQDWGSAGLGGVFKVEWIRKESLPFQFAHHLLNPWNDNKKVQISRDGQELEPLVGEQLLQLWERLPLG
# Protocol: (§4) The binding affinity for DC1 could not be evaluated by HTRF because of interference of the compounds with the assay, which has a smaller assay window when performed with DC1 compared to the DF proteins. Thus, the FP assay was used to evaluate binding to DC1 and DC2.
# The N-terminally GST-tagged YTH domain of YTHDC2 (residues 1285–1424, cloned into the pGEX-6P-1 vector) was overexpressed in Rosetta (DE3) cells grown overnight at 20 °C following induction with 0.4 mM isopropyl-β-D-thiogalactopyranoside (IPTG) at an OD600 of 0.8. The cells were harvested and resuspended in a lysis buffer containing 100 mM Tris–HCl (pH 8.0) and 500 mM NaCl. After cell lysis, the lysate was clarified by centrifugation at 48,000g for 1 h, and the soluble proteins were loaded onto a column packed with Glutathione Sepharose 4B (GE Healthcare), then eluted with 20 mM reduced glutathione in lysis buffer. Finally, a size-exclusion chromatography step (HiLoad 16/600 Superdex 200 pg column, GE Healthcare) was performed to further purify the protein in 20 mM Tris–HCl (pH 7.4) and 150 mM NaCl.
# (§5) For fluorescence polarization (FP) experiments, a 5′-fluorescein-labeled m^6A-DNA probe (5′-FAM-[…](m6A)-CTAAGCT-3′) was synthesized by Microsynth AG.
# (§6) The final concentration of the fluorescein-labeled DNA was kept constant at 3 nM. For YTHDC2 measurements, the protein concentration was set to 25 nM, while for YTHDF2 measurements, it was set to 10 nM, and for YTHDC1, it was set at 15 nM. The compound concentration was serially diluted to obtain the dose–response curve. The competition experiments were conducted in a final volume of 20 μL in a buffer containing 20 mM Tris–HCl (pH 7.4), 150 mM NaCl, and 0.01% bovine serum albumin (BSA), using a 384-well black flat-bottomed microplate (Corning 3575).
# (§7) After incubating the mixture for 1 h, the anisotropy values were measured using a Tecan SPARK plate reader with 485/20 nm excitation and 535/25 nm emission polarization filters, suitable for fluorescein, at 25 °C. To obtain the equilibrium dissociation constant (K d), the IC50 values were first derived by fitting a dose–response curve to the data using nonlinear regression analysis in GraphPad Prism. These IC50 values were then converted to K d by using the Cheng–Prusoff equation: Kd=IC50/1+[L]/Kdprobe
# (§8) IC50 is the observed value from FP assay, [L] is the probe concentration used, and K d ^probe is the binding affinity of probe for the target.
# [4] = target: T4, GST-YTHDF2 (Homo sapiens, UniProt Q9Y5A9); experiment: HTRF-based binding assay, competition with m6A-oligoRNA, DF2; conditions: for Single-dose residual signal at 100 µM, DF2 / % at 100 µM: 100 µM compound; for Single-dose residual signal at 100 µM, DF2: normalized; for IC50: dose-response, competitor m6A-oligoRNA, read-out: DF2 IC50 (HTRF assay); for LE (ligand efficiency, DF2): LE = -RT ln IC50/HAC from HTRF IC50; for Residual signal at 1 mM concentration: 1 mM compound, relative to control, average of two technical replicates, * = interference with the assay
# T4 construct: made in house
# T4 sequence (Q9Y5A9 1-579): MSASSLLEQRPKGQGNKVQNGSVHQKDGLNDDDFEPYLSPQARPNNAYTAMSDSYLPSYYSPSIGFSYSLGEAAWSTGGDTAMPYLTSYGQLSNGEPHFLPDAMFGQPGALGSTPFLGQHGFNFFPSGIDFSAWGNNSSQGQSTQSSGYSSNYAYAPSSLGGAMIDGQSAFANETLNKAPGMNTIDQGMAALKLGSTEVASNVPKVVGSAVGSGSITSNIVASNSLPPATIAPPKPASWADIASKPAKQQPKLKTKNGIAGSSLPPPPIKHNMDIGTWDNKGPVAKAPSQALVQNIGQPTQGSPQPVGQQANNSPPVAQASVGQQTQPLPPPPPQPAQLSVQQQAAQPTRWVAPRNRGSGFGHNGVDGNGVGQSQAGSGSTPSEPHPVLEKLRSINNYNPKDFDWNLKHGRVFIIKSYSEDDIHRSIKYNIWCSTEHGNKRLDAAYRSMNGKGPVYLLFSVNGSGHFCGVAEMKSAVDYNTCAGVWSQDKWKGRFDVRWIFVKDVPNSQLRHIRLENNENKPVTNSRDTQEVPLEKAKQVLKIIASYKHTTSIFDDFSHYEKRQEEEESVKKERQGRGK
# [5] = target: T5, YTHDF2 (Homo sapiens, UniProt Q9Y5A9); experiment: DNA-fluorescence polarization (FP) competition assay, DF2; format: binding
# T5 sequence (Q9Y5A9 1-579): T4 sequence (Q9Y5A9 1-579)
# Protocol: An FP competition assay was used to further validate the binding of the compounds to DF2. The main difference with respect to a previously published FP assay is the use of an oligo-DNA as competitor ligand (see Materials and Methods section). […] These differences might originate from the varying conditions in the two assays, such as the competitor mRNA (5′-biotin-[…](m6A)-CUAAGCU-3′) in HTRF and DNA (5′-FAM-[…](m6A)-CTAAGCT-3′) in FP, the salt concentration (150 mM NaCl and 100 mM KF in HTRF, and 150 mM NaCl in FP), and the pH (7.5 in HTRF and 7.4 in FP). The FP-based assay was also employed to assess the selectivity against DC1 and DC2 (see Selectivity section).
# as §5, §6, §7, §8
# [6] = target: YTHDC1 (Homo sapiens, UniProt Q96MU7); experiment: DNA-fluorescence polarization (FP) competition assay, DC1; format: binding
# Protocol: as §4, §5, §6, §7, §8
# [7] = Cheng-Prusoff from FP IC50, probe Kd 5 nM, two biological replicates
smiles,measurement,setting,value
Cc1c(C(C)O)sc2[nH]c(=S)[nH]c(=O)c12 (racemic) [Compound S79],"Single-dose residual signal at 100 µM, DF3",[1],30%
same,"Single-dose residual signal at 100 µM, DF1",[2],31%
same,Kd,[3],> 1000 µM
same,"Single-dose residual signal at 100 µM, DF2",[4]; HTRF,9%
same,IC50,[4],27 µM
COc1ccc(-c2cc3c(=O)[nH]c(=S)[nH]c3s2)cc1 [Compound 28],Kd,[5],1.9 µM
same,Kd,[6],9.4 µM
same,Kd,[3],9.1 µM
same,"LE (ligand efficiency, DF2)",[4],0.34 kcal/(mol HAC)
same,IC50,[4],22 µM
CCOC(=O)c1ccc(-c2cc3c(=O)[nH]c(=S)[nH]c3s2)cc1 [Compound 29],Kd,[5],3.1 µM
same,Kd,[6],5 µM
same,Selectivity DF2 over DC1 (Kd ratio DC1/DF2),[6]; FP Kd values,2–4 fold
same,Kd,[3],8.4 µM
same,Selectivity DF2 over DC2 (Kd ratio DC2/DF2),[3]; FP Kd values,2–4 fold
same,"LE (ligand efficiency, DF2)",[4],0.29 kcal/(mol HAC)
same,IC50,[4],21 µM
O=C(O)c1ccc(-c2cc3c(=O)[nH]c(=S)[nH]c3s2)cc1 [Compound 30],Kd,[5],1.9 µM
same,Kd,[6],7.5 µM
same,Kd,[3],5 µM and 4.9 µM
Nn1c(=S)[nH]c2scc(-c3ccccc3)c2c1=O [Compound S68],% at 100 µM,[4]; HTRF,32%
same,Residual signal at 1 mM concentration,[4]; HTRF,36%
CCN1CCc2c(sc3[nH]c(=S)n(N)c(=O)c23)C1 [Compound S69],IC50,[4],23 µM
O=c1[nH]c(=S)[nH]c2scc(-c3cccs3)c12 [Compound S70],% at 100 µM,[4]; HTRF,45%
same,Residual signal at 1 mM concentration,[4]; HTRF,49%
COc1cccc2c1OCc1sc3[nH]c(=S)[nH]c(=O)c3c1-2 [Compound S73],% at 100 µM,[4]; HTRF,22%
same,Residual signal at 1 mM concentration,[4]; HTRF,64%
O=c1[nH]c(=S)[nH]c2scc(-c3ccccc3)c12 [Compound S74],Kd,[3],> 1000 µM
same,IC50,[4],94 µM
Cc1cc2c(=O)[nH]c(=S)[nH]c2s1 [Compound S78],"Single-dose residual signal at 100 µM, DF3",[1],22%
same,"Single-dose residual signal at 100 µM, DF1",[2],17%
same,Kd,[3],> 1000 µM
same,"Single-dose residual signal at 100 µM, DF2",[4]; HTRF,8%
same,IC50,[4],38 µM
Cc1c(C(=O)O)sc2[nH]c(=S)[nH]c(=O)c12 [Compound S80],"Single-dose residual signal at 100 µM, DF3",[1],29%
same,"Single-dose residual signal at 100 µM, DF1",[2],15%
same,"Single-dose residual signal at 100 µM, DF2",[4]; HTRF,9%
same,IC50,[4],32 µM
Cc1c(C(=O)NCCCCO)sc2[nH]c(=S)[nH]c(=O)c12 [Compound S83],"Single-dose residual signal at 100 µM, DF3",[1],40%
same,"Single-dose residual signal at 100 µM, DF1",[2],17%
same,Kd,[3],> 1000 µM
same,"Single-dose residual signal at 100 µM, DF2",[4]; HTRF,9%
same,IC50,[4],25 µM
CCOC(=O)c1ccc(Cc2cc3c(=O)[nH]c(=S)[nH]c3s2)cc1 [Compound S86],Kd,[3],210 µM
same,"% at 125 μM (printed in IC50 column, IC50 could not be determined)","[4]; HTRF, 125 μM compound",63%
O=C(O)c1ccc(Cc2cc3c(=O)[nH]c(=S)[nH]c3s2)cc1 [Compound S87],Kd,[5]; [7],18 µM
same,Kd,[3],100 µM
same,IC50,[4],29 µM
Cc1csc2[nH]c(=S)[nH]c(=O)c12 [Compound S88],Kd,[5]; [7],8.1 µM
same,Kd,[3],120 µM
same,IC50,[4],28 µM

# From article PMC12371494, “Discovery of YTHDF2 Ligands by Fragment-Based Design” (ACS Bio & Med Chem Au, 2025)
